According to PMC6161018, “Synthesis, Structure–Activity Relationships and In Vitro Toxicity Profile of Lactose-Based Fatty Acid Monoesters as Possible Drug Permeability Enhancers” (Pharmaceutics, 2018):
pIC50: −log10 of the molar value. “And” between values parts separate entries of the source, which are not always exact repeats. Identical values can stand only once.

Columns and labels:
[1] = tested on: Caco-2 cells; assay: Lactate dehydrogenase (LDH) release assay; format: cell-based; details: Caco-2, 24 h exposure, 50% release of LDH
Protocol: (§1) Caco-2 and Calu-3 cells were seeded in sterile 96-well culture plates at a density of 3 × 10^4 cells per well. Surfactant solutions (at the same concentration as in MTT assay described above) were added to the cells and incubated at 37 °C for 24 h. Triton X-100 at 1% v/v was used as positive control. LDH release assay was conducted according to the manufacturer’s protocol. The percentage of released LDH was calculated relative to the controls by taking samples treated with Triton X-100 as complete LDH release and untreated cells as nil LDH release.
(§2) The concentration of surfactant that caused a 50% release of LDH (IC50, mM), was calculated by fitting the experimental data with dose–response model (Prism 6, Version 6.0b, GraphPad Software).

[2] = tested on: Calu-3 cells; assay: Lactate dehydrogenase (LDH) release assay; format: cell-based; details: Calu-3, 24 h exposure, 50% release of LDH; for pIC50: Homo sapiens
Protocol: as §1, §2

[3] = tested on: Caco-2 cells; assay: MTT cell viability assay; format: cell-based; details: Caco-2, 24 h exposure, 50% reduction of viable cells; for pIC50: Homo sapiens
Protocol: (§3) Caco-2 and Calu-3 cells were seeded in sterile 96-well culture plates at a density of 3 × 10^4 cells per well. The cells were incubated to attain at least 80% confluence before the experiment. Stock solutions of surfactants were prepared in phosphate buffered saline (PBS). They were diluted at various concentrations (from 0.0078 to 1 mg/mL) in cell culture medium before added to the cells. Complete culture media were used as control. The cytotoxic effect of each surfactant was evaluated using the MTT cell viability assay. After 24 h of incubation, surfactant solution was discarded and replaced by MTT solution (0.8 mg/mL). The cells were subjected to MTT treatment for 2 h. Formazan crystals formed were then dissolved in absolute isopropanol and incubated with gentle shaking at room temperature for 15 min. Absorbance was measured at 570 nm using a microplate reader (Multiskan™ GO Microplate Spectrophotometer Thermo Scientific, Waltham, MA, USA). Percentage of viable cells was calculated using untreated cells as control with 100% cell viability. The percentage of viable cells was plotted against log concentration of the surfactants. IC50 (mg/mL), the concentration of surfactant that caused a 50% reduction in cell viability was calculated by fitting the experimental data with dose–response model (Prism 6, Version 6.0b, GraphPad Software).

[4] = tested on: Calu-3 cells; assay: MTT cell viability assay; format: cell-based; details: Calu-3, 24 h exposure, 50% reduction of viable cells; for pIC50: Homo sapiens
Protocol: as §3

[5] = Surface tension measurements (tensiometry), CMC determination; format: physicochemical; details: for Amin (minimum area per surfactant molecule): air-water interface, calculated from Γmax; for γCMC (surface tension at CMC) / CMC (critical micelle concentration): in water, room temperature; for CMC (critical micelle concentration): straight-line interception method; for Γmax × 10^−6 (maximum surface excess): values × 10^−6, Gibbs equation from surface tension plot
Protocol: Surface tension of different concentrations of surfactant solutions in water was measured using a platinum cylindrical rod probe with wetted length of 1.6 mm (K100-Krüss force tensiometer, Hamburg, Germany) at room temperature. Approximately 1 mL of each surfactant solution was placed onto a Teflon plate and the surface of the liquid was aspirated to remove any remaining impurities. Then, the rod probe was immersed 2 mm into the liquid. Data are expressed as the mean of three repeated measurements performed at room temperature. The critical micelle concentration and the surface tension at the CMC (γCMC) were calculated through the straight-line interception method, while the Gibbs surface excess (Γmax) was calculated from the following equation:(1) Γmax=1/2.303 × n × R × T (δγ/δlogC) where T is the absolute temperature, R is the gas constant (8.314 J/mol K), C is the surfactant concentration, n = 1 for a non-ionic candidate. δγ/δlogC was calculated from the maximum slope of the plot surface tension vs. surfactant concentration in the linear region before CMC.
The minimum area per surfactant molecule at the air-water interface (Amin) was determined as follow:(2) Amin= 10^18/N × Γmax where N is the Avogadro number.

[6] = tested on: Caco-2 cell monolayer; assay: Trans-epithelial electrical resistance (TEER) measurement; format: cell-based; details: Caco-2 monolayer, apical, 2 h; applied at MTT IC50 and at highest 100% viability concentration
Protocol: (§4) Caco-2 and Calu-3 cells were seeded at a density of 2 × 10^5 cells per well on filter inserts (Transwell® Permeable Support 12 mm Insert, Corning Life Sciences, Tewksbury, MA, USA) and cultured to confluence under air-liquid interface conditions. Culture media on the baso-lateral sides of the cells were changed every 24 h. For TEER measurements, culture medium was discarded from the cell layer and replaced with Kreb’s Balanced Saline Solutions (KBSS) on both the apical and baso-lateral sides of the monolayers. Cell layers were allowed equilibrating in KBSS at 37 °C, 5% CO2 for 45 min prior to sample application. Baseline TEER was measured before the treatment with surfactants. For each surfactant, concentrations that caused 50% cell viability, and the highest concentration that maintained 100% cell viability (according to the MTT assay) were added to the apical sides of the cell layers and incubated for 2 h. TEER was then measured at 5, 30, 60, 90 and 120 min after surfactant addition. Between TEER measurements, cells were incubated at normal cell culture conditions. After 120 min, surfactant was removed, and culture media were added to both sides of the filter inserts. TEER measurement was conducted again after 24 h to evaluate the recovery of cell monolayers. A volt-ohmmeter (Millcell® ERS-2 Voltohmmeter, Millipore, Burlington, MA, USA) equipped with a pair of electrodes was used for TEER measurement. Baseline TEER measured from cell layers incubated in KBSS was used as control and the change in TEER was presented as a percentage relative to baseline value. Three independent experiments were performed in duplicate.

[7] = tested on: Calu-3 cell monolayer; assay: as above; format: cell-based; details: Calu-3 monolayer, apical, 2 h, applied at MTT IC50 and at highest 100% viability concentration
Protocol: as §4

[8] = tested on: Caco-2 cells; assay: Mitochondrial membrane potential (JC-1 assay); format: cell-based; details: Caco-2, 24 h in HBSS, same concentrations compared
Protocol: (§5) Caco-2 and Calu-3 cells were seeded in sterile 96 well plates at a density of 1 × 10^4 cells per well and cultured for 24 h. As above, surfactant solutions were applied in Hank’s balanced salt solution (HBSS) for 24 h. One millimolar FCCP was employed as the positive, mitochondrial depolarizing control. Following exposure, treatments were removed and cells were washed twice with PBS prior to the addition of 50 µL (5 µg/mL) JC-1 dye diluted in complete DMEM (without antibiotics) per well for 15 min at 37 °C. Dye solution was then removed and wells washed with PBS followed by addition of 50 µL/well PBS prior to measuring fluorescence at 550/600 nm (λex/λem) for detection of JC-1 J-aggregates and 485/535 nm (λex/λem) for detection of JC-1 monomers. A ratio between JC-1 aggregates and JC-1 monomer signals was then taken, and data normalized by setting the untreated control as a value of 1.0 and the positive control (1.0 mM FCCP) as a value of 0.0.

[9] = tested on: Calu-3 cells; assay: Mitochondrial membrane potential (JC-1 assay); format: cell-based; details: Calu-3, 24 h in HBSS, same concentrations compared
Protocol: as §5

SMILES	pIC50 ([1]; Homo sapiens, Caco-2, 24 h)	pIC50 [2]	pIC50 [3]	pIC50 [4]	Amin (minimum area per surfactant molecule) [5] [Å^2]	γCMC (surface tension at CMC) [5] [mN/m]	CMC (critical micelle concentration) [5]	γCMC (surface tension at CMC) ([5]; listed as lactose laurate)	Γmax × 10^−6 (maximum surface excess) [5] [mol/m^2]	effect on TEER [6]	effect on TEER [7]	pIC50 [1]	mitochondrial membrane potential (J-aggregates:J-monomers ratio) [8]	mitochondrial membrane potential (J-aggregates:J-monomers ratio) [9]	LDH Assay IC50 [1]	LDH Assay IC50 [2]	MTT Assay IC50 [3]	MTT Assay IC50 [4]	γCMC (surface tension at CMC) ([5]; listed as lactose caprate)	effect on TEER ([7]; listed as lactose caprate)
CCCCCCCCCCCC(=O)OC[C@H]1O[C@@H](O[C@H]2[C@H](O)[C@@H](O)[C@@H](O)O[C@@H]2CO)[C@H](O)[C@@H](O)[C@H]1O [Lactose laurate, 6′-O-Dodecanoyl-4-O-(β-D-galactopyranosyl)-D-glucopyranose]	3.22	3.34	3.42	2.97	17.45 ± 0.09	40.4 ± 0.02	0.55 ± 0.02 mM	around 40 mN/m	9.52 ± 0.05	moderate reduction of TEER	most effective surfactant in decreasing the TEER at both tested concentrations									
CCCCCCCCCCCCCCCC(=O)OC[C@H]1O[C@@H](O[C@H]2[C@H](O)[C@@H](O)[C@@H](O)O[C@@H]2CO)[C@H](O)[C@@H](O)[C@H]1O [Lactose palmitate, 6′-O-Esadecanoyl-4-O-(β-D-galactopyranosyl)-D-glucopyranose]	3.71	3.85	4.22	3.91	25.69 ± 0.43	45.1 ± 0.33	0.08 mM and 0.08 ± 0.03 mM		6.46 ± 0.11			3.79	highest cytotoxic effect	highest cytotoxic effect						
CCCCCCCCCC(=O)OC[C@H]1O[C@@H](O[C@H]2[C@H](O)[C@@H](O)[C@@H](O)O[C@@H]2CO)[C@H](O)[C@@H](O)[C@H]1O [Lactose caprate, 6′-O-Decanoyl-4-O-(β-D-galactopyranosyl)-D-glucopyranose]	< 2.70	< 2.70	< 2.70	< 2.70	17.46 ± 0.25	40.6 ± 0.04	2.58 ± 0.32 mM		9.52 ± 0.11		more significant decrease in TEER in Calu-3 cells compared to Caco-2 cells				higher than the tested concentration range	higher than the tested concentration range	higher than the tested concentration range	higher than the tested concentration range	around 40 mN/m	only slightly affected the TEER
CCCCCCCCCCCCCC(=O)OC[C@H]1O[C@@H](O[C@H]2[C@H](O)[C@@H](O)[C@@H](O)O[C@@H]2CO)[C@H](O)[C@@H](O)[C@H]1O [Lactose myristate, 6′-O-Tetradecanoyl-4-O-(β-D-galactopyranosyl)-D-glucopyranose]	3.71	3.72	3.95	3.58	19.86 ± 0.80	45.6 ± 0.19	0.14 ± 0.05 mM		8.37 ± 0.46											
